Experimental data as given in patent publication US20250152604A1, “CONTRACEPTIVE METHODS WITH SCHEDULED BLEEDING EFFECTS” (ESTETRA SRL, priority 2022, published 2025).

Experiment: Solubility description
Assay type: physicochemical
Conditions: for solubility in water: water (and aqueous solutions)

Row | solubility in acetone (acetone) | solubility in acetonitrile (acetonitrile) | solubility in ethanol (ethanol) | solubility in ethyl acetate (ethyl acetate) | solubility in methanol (methanol) | solubility in water | SMILES
1 | sparingly soluble | slightly soluble | soluble | slightly soluble | soluble | poorly soluble | C[C@]12CC[C@@H]3c4ccc(O)cc4CC[C@H]3[C@@H]1[C@@H](O)[C@@H](O)C2O (stereo in doubt) [Estetrol monohydrate, estra-1,3,5 (10)-triene-3,15α, 16α, 17α-tetrol monohydrate]
2 | – | – | – | – | – | slight solubility | C[C@]12CCC(=O)C=C1[C@@H]1C[C@@H]1[C@H]1[C@@H]3[C@@H]4C[C@@H]4[C@@]4(CCC(=O)O4)[C@@]3(C)CC[C@@H]12 [Drospirenone, reference compound]
